The results in this text go back to publication PMC1084349 (BMC Neuroscience, 2005).

Where a SMILES comes first, the peptide text is derived from it.

This assay has as its target T1, hTAS1R2-hTAS1R3 (Homo sapiens, UniProt Q7RTX0+Q8TE23).
T1 sequence (Q8TE23 20-839): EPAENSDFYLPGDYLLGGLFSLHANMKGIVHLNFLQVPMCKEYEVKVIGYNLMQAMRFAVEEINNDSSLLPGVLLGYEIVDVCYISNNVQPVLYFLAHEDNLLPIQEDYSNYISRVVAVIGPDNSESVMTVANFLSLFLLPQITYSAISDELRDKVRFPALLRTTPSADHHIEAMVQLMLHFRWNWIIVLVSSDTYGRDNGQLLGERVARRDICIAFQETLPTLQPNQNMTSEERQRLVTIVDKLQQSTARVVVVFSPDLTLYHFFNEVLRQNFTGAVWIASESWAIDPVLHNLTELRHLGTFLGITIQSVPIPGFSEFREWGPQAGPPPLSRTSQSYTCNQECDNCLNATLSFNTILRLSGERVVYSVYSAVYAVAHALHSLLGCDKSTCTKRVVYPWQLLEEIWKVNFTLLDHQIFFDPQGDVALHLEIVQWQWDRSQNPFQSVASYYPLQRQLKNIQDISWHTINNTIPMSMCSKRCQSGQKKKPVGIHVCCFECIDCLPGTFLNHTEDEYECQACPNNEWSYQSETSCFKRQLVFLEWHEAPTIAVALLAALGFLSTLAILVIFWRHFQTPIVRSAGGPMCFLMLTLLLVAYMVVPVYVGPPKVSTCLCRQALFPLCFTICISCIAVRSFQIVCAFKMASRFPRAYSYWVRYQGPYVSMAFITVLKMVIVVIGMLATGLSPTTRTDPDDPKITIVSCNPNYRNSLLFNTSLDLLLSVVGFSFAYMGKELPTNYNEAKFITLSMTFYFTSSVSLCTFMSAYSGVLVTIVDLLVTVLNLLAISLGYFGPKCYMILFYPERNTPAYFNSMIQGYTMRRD
T1 sequence (Q7RTX0 21-852): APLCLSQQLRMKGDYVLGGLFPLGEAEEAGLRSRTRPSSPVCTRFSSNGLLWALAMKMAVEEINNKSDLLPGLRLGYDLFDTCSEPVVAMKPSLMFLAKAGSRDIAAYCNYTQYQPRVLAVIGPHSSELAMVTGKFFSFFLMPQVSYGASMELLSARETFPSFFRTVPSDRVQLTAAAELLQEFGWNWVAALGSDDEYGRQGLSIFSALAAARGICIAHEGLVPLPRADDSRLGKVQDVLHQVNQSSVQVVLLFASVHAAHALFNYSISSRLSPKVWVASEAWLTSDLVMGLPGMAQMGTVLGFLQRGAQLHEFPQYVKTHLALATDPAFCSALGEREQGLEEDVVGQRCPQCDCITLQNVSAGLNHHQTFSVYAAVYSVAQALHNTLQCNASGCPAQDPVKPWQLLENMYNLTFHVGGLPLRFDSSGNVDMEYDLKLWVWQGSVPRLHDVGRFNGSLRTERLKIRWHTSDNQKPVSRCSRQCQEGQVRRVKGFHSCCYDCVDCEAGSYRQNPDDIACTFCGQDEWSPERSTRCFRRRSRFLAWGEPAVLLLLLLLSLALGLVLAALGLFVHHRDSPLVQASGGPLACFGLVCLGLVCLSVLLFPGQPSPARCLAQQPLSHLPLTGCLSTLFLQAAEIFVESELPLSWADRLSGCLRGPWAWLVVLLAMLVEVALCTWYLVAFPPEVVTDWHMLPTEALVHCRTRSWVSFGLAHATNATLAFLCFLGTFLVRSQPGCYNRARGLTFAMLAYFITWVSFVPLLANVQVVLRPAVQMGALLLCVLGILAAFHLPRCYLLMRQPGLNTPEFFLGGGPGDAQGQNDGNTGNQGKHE
The assay is described as follows: Calcium mobilization (FLIPR) in transfected HEK293T-Gα16gust44 cells, human sweet receptor. The note with it: asp 15 mM; cyc 30 mM; neo 0.1 mM; sac 10 mM; suc 100 mM; stev 1 mM.

Take `O=S(=O)(O)NC1CCCCC1` [cyclamate]: the “activation of receptor (calcium response)” value is reported as “activated the human receptor”.

As for `COC(=O)[C@H](Cc1ccccc1)NC(=O)[C@@H](N)CC(=O)O` [aspartame] (HELM PEPTIDE1{D.F.[CO[*:1]]}$$$$V2.0), the “activation of receptor (calcium response)” value is reported as “activated the human receptor”.

As to `OC[C@H]1O[C@@](CO)(O[C@H]2O[C@H](CO)[C@@H](O)[C@H](O)[C@H]2O)[C@@H](O)[C@@H]1O` [sucrose], the “activation of receptor (calcium response)” value is “activated the human receptor”.

Regarding `COc1ccc(CCC(=O)c2c(O)cc(O[C@@H]3O[C@H](CO)[C@@H](O)[C@H](O)[C@H]3O[C@@H]3O[C@@H](C)[C@H](O)[C@@H](O)[C@H]3O)cc2O)cc1O` [neohesperidine dihydrochalcone], the “activation of receptor (calcium response)” value was “activated the human receptor”.

Take `C=C1C[C@@]23CC[C@H]4[C@@](C)(CCC[C@@]4(C)C(=O)O[C@@H]4O[C@H](CO)[C@@H](O)[C@H](O)[C@H]4O)[C@@H]2CC[C@]1(O[C@@H]1O[C@H](CO)[C@@H](O)[C@H](O)[C@H]1O[C@@H]1O[C@H](CO)[C@@H](O)[C@H](O)[C@H]1O)C3` [stevioside]: the “activation of receptor (calcium response)” value is “activated the human receptor”.
